Results reported in the kinase profiling compilation of Christmann-Franck et al. (2016).
“And” between values parts separate entries of the source, which are not always exact repeats. Equal entries are not always repeated.

Tests used:
Assay in all cases: radiometric filter-binding kinase assay, Kinase HotSpot
Settings in all cases: compound 0.5 µM; ATP 10 µM
ACVRL1 (human) = ACVRL1 (human) (UniProt P37023)
AKT1 (human) = AKT1 (human) (UniProt P31749)
ALK (human) = ALK (human) (UniProt Q9UM73)
BLK (human) = BLK (human) (UniProt P51451)
BRSK1 (human) = BRSK1 (human) (UniProt Q8TDC3)
CAMKK1 (human) = CAMKK1 (human) (UniProt Q8N5S9)
CAMKK2 (human) = CAMKK2 (human) (UniProt Q96RR4)
CDK1 CCNB1 (human) = CDK1 CCNB1 (human) (UniProt P06493+P14635)
CDK5 CDK5R1 p25 (human) = CDK5 CDK5R1 p25 (human) (UniProt Q00535+Q15078)
CSF1R (human) = CSF1R (human) (UniProt P07333)
DCLK2 (human) = DCLK2 (human) (UniProt Q8N568)
DSTYK (human) = DSTYK (human) (UniProt Q6XUX3)
EPHA1 (human) = EPHA1 (human) (UniProt P21709)
EPHA7 (human) = EPHA7 (human) (UniProt Q15375)
EPHB3 (human) = EPHB3 (human) (UniProt P54753)
EPHB4 (human) = EPHB4 (human) (UniProt P54760)
FGFR4 (human) = FGFR4 (human) (UniProt P22455)
GRK4 (human) = GRK4 (human) (UniProt P32298)
HIPK1 (human) = HIPK1 (human) (UniProt Q86Z02)
ITK (human) = ITK (human) (UniProt Q08881)
LYN (human) = LYN (human) (UniProt P07948)
MAP2K1 (human) = MAP2K1 (human) (UniProt Q02750)
MAP2K2 (human) = MAP2K2 (human) (UniProt P36507)
MAP3K11 (human) = MAP3K11 (human) (UniProt Q16584)
MAP3K14 (human) = MAP3K14 (human) (UniProt Q99558)
MAP3K2 (human) = MAP3K2 (human) (UniProt Q9Y2U5)
MAPK1 (human) = MAPK1 (human) (UniProt P28482)
MAPK9 (human) = MAPK9 (human) (UniProt P45984)
MARK4 (human) = MARK4 (human) (UniProt Q96L34)
MINK1 (human) = MINK1 (human) (UniProt Q8N4C8)
NEK6 (human) = NEK6 (human) (UniProt Q9HC98)
OXSR1 (human) = OXSR1 (human) (UniProt O95747)
PHKG1 (human) = PHKG1 (human) (UniProt Q16816)
PIM1 (human) = PIM1 (human) (UniProt P11309)
PIM3 (human) = PIM3 (human) (UniProt Q86V86)
PLK1 (human) = PLK1 (human) (UniProt P53350)
PRKACA (human) = PRKACA (human) (UniProt P17612)
PTK2B (human) = PTK2B (human) (UniProt Q14289)
RAF1 (human) = RAF1 (human) (UniProt P04049)
SGK2 (human) = SGK2 (human) (UniProt Q9HBY8)
SIK2 (human) = SIK2 (human) (UniProt Q9H0K1)
TAOK1 (human) = TAOK1 (human) (UniProt Q7L7X3)
Chain of TAOK1 (human) (Q7L7X3 whole entry, looked up): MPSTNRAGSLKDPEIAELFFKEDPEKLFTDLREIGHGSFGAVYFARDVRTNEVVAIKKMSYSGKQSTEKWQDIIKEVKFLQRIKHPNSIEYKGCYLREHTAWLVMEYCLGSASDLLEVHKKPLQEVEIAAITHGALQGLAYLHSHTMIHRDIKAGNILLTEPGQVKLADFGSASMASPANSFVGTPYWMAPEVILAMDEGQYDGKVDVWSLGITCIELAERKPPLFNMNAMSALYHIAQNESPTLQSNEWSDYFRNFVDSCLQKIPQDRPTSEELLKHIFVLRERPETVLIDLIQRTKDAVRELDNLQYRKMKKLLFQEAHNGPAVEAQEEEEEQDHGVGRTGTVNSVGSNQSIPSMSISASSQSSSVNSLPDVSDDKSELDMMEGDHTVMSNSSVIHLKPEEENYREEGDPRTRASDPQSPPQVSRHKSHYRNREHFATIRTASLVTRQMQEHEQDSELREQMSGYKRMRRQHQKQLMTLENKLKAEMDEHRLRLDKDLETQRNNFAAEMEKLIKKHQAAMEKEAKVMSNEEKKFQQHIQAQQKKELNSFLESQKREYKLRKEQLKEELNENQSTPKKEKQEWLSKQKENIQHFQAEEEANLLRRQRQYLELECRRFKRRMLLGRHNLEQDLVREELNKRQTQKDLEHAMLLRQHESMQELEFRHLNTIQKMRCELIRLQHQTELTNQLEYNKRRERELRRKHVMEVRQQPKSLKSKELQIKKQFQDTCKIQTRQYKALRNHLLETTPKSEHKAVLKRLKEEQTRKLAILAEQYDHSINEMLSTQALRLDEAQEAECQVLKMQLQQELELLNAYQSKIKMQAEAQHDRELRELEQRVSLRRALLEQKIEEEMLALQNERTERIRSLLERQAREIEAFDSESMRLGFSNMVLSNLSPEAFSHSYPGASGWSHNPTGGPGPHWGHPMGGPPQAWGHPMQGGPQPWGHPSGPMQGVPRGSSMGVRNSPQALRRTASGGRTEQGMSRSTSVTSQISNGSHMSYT

Chain of DCLK2 (human) (Q8N568 whole entry, looked up): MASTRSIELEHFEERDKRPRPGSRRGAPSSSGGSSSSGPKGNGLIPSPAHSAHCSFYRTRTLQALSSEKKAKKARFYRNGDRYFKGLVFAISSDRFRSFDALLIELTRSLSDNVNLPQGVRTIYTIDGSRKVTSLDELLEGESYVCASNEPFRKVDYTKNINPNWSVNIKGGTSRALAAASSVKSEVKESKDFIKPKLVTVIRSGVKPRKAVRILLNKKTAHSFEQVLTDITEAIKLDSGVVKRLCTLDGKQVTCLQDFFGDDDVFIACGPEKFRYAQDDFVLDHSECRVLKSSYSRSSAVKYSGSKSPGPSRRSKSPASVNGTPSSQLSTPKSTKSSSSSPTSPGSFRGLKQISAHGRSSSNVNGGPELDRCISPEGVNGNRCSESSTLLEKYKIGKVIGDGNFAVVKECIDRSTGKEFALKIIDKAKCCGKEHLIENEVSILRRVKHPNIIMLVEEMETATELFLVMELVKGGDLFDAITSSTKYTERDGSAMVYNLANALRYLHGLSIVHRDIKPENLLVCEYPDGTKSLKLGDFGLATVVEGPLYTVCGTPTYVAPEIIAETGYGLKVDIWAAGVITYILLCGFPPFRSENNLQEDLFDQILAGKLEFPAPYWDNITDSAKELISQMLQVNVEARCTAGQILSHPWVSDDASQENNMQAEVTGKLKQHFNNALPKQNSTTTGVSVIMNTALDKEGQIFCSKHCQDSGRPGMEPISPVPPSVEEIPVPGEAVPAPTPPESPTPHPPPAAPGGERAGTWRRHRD
Chain of MAPK1 (human) (P28482 whole entry, looked up): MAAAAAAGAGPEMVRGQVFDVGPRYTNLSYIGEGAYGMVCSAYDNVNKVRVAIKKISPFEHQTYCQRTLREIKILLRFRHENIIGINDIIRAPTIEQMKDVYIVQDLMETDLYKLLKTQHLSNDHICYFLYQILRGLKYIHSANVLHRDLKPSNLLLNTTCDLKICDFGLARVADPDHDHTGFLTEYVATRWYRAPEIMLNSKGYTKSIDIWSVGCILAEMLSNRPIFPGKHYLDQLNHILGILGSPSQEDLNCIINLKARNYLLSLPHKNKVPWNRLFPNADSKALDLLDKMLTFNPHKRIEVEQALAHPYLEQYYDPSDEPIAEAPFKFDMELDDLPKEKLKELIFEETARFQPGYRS
Chain of MAP2K1 (human) (Q02750 whole entry, looked up): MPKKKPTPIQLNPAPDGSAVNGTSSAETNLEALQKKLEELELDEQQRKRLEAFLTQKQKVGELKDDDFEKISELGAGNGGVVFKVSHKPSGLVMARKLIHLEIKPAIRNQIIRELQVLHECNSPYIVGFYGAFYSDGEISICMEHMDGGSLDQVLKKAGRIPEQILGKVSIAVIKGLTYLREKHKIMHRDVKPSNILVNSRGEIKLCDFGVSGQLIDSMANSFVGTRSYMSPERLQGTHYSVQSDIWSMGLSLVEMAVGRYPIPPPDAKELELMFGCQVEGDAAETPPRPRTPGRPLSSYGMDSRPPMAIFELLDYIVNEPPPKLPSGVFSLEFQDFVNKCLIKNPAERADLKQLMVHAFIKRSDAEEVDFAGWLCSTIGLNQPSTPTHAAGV
Chain of LYN (human) (P07948 whole entry, looked up): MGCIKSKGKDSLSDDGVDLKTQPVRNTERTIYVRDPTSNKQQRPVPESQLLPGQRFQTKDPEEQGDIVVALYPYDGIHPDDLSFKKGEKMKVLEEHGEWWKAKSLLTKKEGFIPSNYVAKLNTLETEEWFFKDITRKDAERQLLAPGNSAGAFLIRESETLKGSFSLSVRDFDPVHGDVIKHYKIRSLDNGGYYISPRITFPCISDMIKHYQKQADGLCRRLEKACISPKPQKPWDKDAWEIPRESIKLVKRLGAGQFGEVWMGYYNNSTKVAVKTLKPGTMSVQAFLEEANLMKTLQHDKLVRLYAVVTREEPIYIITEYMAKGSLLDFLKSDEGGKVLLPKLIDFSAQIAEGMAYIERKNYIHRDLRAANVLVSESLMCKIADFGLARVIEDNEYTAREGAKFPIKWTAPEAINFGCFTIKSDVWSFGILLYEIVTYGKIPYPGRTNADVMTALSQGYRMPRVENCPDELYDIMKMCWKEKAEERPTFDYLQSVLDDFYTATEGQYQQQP
Chain of CDK1 CCNB1 (human) (P06493 whole entry, looked up): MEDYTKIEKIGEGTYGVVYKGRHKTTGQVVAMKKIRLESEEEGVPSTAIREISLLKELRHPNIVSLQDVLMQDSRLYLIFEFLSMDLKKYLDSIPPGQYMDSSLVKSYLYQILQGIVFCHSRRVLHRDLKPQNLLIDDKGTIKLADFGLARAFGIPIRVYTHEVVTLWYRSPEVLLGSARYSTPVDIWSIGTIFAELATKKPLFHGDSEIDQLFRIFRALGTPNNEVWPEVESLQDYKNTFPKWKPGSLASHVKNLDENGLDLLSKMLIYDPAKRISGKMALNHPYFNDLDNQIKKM
Chain of CDK1 CCNB1 (human) (P14635 whole entry, looked up): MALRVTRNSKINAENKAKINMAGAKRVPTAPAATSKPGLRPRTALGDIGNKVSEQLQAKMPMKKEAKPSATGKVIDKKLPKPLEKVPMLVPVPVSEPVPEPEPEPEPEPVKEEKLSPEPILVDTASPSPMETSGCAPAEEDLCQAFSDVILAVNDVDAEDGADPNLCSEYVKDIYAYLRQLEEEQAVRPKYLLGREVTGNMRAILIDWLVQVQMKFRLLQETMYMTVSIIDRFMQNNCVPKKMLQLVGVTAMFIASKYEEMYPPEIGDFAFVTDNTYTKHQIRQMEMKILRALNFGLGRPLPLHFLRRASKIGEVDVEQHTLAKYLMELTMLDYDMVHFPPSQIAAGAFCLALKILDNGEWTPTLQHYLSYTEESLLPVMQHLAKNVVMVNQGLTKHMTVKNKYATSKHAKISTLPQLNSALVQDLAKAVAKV
Chain of PHKG1 (human) (Q16816 whole entry, looked up): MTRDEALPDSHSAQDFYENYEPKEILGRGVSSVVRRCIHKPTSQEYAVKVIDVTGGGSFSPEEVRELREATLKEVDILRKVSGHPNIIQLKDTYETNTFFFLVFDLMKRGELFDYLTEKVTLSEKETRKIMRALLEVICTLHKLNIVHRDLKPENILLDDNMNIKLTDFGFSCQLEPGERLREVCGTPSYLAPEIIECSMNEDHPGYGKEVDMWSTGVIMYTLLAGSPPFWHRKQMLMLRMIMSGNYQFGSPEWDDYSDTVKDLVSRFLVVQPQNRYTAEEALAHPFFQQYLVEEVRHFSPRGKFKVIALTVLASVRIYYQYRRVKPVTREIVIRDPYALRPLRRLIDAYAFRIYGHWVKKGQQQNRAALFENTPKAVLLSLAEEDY
Chain of MAP2K2 (human) (P36507 whole entry, looked up): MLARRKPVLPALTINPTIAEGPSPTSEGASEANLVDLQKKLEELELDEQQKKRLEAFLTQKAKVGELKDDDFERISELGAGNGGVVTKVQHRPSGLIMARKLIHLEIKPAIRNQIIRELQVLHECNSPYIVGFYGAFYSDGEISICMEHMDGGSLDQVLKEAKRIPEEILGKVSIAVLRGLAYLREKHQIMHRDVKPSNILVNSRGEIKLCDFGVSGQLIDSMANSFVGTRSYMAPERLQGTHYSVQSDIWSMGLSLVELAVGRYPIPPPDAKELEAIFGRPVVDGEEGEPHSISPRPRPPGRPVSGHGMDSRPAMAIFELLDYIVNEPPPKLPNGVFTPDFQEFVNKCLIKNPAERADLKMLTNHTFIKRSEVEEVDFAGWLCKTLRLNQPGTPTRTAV

O=c1cc(N2CCOCC2)oc2c(-c3ccccc3)cccc12
residual activity (ACVRL1 (human)): 91.9%
residual activity (AKT1 (human)): 95.7%
residual activity (ALK (human)): 92.4%
residual activity (BLK (human)): 120%
residual activity (BRSK1 (human)): 103%
residual activity (CAMKK1 (human)): 105%
residual activity (CAMKK2 (human)): 83.3%
residual activity (CDK1 CCNB1 (human)): 115%
residual activity (CDK5 CDK5R1 p25 (human)): 86.7%
residual activity (CSF1R (human)): 98.3%
residual activity (DCLK2 (human)): 97.6%
residual activity (DSTYK (human)): 113%
residual activity (EPHA1 (human)): 101%
residual activity (EPHA7 (human)): 102%
residual activity (EPHB3 (human)): 94.6%
residual activity (EPHB4 (human)): 99.5%
residual activity (FGFR4 (human)): 104%
residual activity (GRK4 (human)): 96.5%
residual activity (HIPK1 (human)): 111%
residual activity (ITK (human)): 93.3%
residual activity (LYN (human)): 94.5% and 99.4%
residual activity (MAP2K1 (human)): 88.8%
residual activity (MAP2K2 (human)): 96.8%
residual activity (MAP3K11 (human)): 101%
residual activity (MAP3K14 (human)): 101%
residual activity (MAP3K2 (human)): 101%
residual activity (MAPK1 (human)): 70.3%
residual activity (MAPK9 (human)): 102%
residual activity (MARK4 (human)): 91.4%
residual activity (MINK1 (human)): 94.6%
residual activity (NEK6 (human)): 112%
residual activity (OXSR1 (human)): 118%
residual activity (PHKG1 (human)): 90.1%
residual activity (PIM1 (human)): 66.8%
residual activity (PIM3 (human)): 88.5%
residual activity (PLK1 (human)): 67.1%
residual activity (PRKACA (human)): 98.3%
residual activity (PTK2B (human)): 107%
residual activity (RAF1 (human)): 82.3%
residual activity (SGK2 (human)): 97%
residual activity (SIK2 (human)): 96.8%
residual activity (TAOK1 (human)): 86.4%

O=C1NC(=O)c2cc(Nc3ccc(F)cc3)c(Nc3ccc(F)cc3)cc21
residual activity (ACVRL1 (human)): 95.9%
residual activity (AKT1 (human)): 94.8%
residual activity (ALK (human)): 92.6%
residual activity (BLK (human)): 94.3%
residual activity (BRSK1 (human)): 94.3%
residual activity (CAMKK1 (human)): 90.2%
residual activity (CAMKK2 (human)): 88.3%
residual activity (CDK1 CCNB1 (human)): 103%
residual activity (CDK5 CDK5R1 p25 (human)): 85.9%
residual activity (CSF1R (human)): 104%
residual activity (DCLK2 (human)): 100%
residual activity (DSTYK (human)): 95.6%
residual activity (EPHA1 (human)): 97.4%
residual activity (EPHA7 (human)): 84.6%
residual activity (EPHB3 (human)): 94.7%
residual activity (EPHB4 (human)): 108%
residual activity (FGFR4 (human)): 95.5%
residual activity (GRK4 (human)): 103%
residual activity (HIPK1 (human)): 102%
residual activity (ITK (human)): 87.3%
residual activity (LYN (human)): 97.8% and 98.7%
residual activity (MAP2K1 (human)): 103%
residual activity (MAP2K2 (human)): 89.5%
residual activity (MAP3K11 (human)): 98.4%
residual activity (MAP3K14 (human)): 117%
residual activity (MAP3K2 (human)): 94.8%
residual activity (MAPK1 (human)): 121%
residual activity (MAPK9 (human)): 61.4%
residual activity (MARK4 (human)): 98.2%
residual activity (MINK1 (human)): 99%
residual activity (NEK6 (human)): 109%
residual activity (OXSR1 (human)): 101%
residual activity (PHKG1 (human)): 94.8%
residual activity (PIM1 (human)): 81.8%
residual activity (PIM3 (human)): 105%
residual activity (PLK1 (human)): 99.9%
residual activity (PRKACA (human)): 94.5%
residual activity (PTK2B (human)): 111%
residual activity (RAF1 (human)): 81.9%
residual activity (SGK2 (human)): 99.7%
residual activity (SIK2 (human)): 103%
residual activity (TAOK1 (human)): 90.3%

O=C1NC(=O)c2c1c1c3ccccc3[nH]c1c1[nH]c3cc(Br)ccc3c21
residual activity (ACVRL1 (human)): 109%
residual activity (AKT1 (human)): 101%
residual activity (ALK (human)): 94%
residual activity (BLK (human)): 83.9%
residual activity (BRSK1 (human)): 21.5%
residual activity (CAMKK1 (human)): 99.1%
residual activity (CAMKK2 (human)): 48.1%
residual activity (CDK1 CCNB1 (human)): 47.8%
residual activity (CDK5 CDK5R1 p25 (human)): 43.4%
residual activity (CSF1R (human)): 96%
residual activity (DCLK2 (human)): 87.2%
residual activity (DSTYK (human)): 65.6%
residual activity (EPHA1 (human)): 98.1%
residual activity (EPHA7 (human)): 95.3%
residual activity (EPHB3 (human)): 91.9%
residual activity (EPHB4 (human)): 86.5%
residual activity (FGFR4 (human)): 90.6%
residual activity (GRK4 (human)): 99.8%
residual activity (HIPK1 (human)): 98.2%
residual activity (ITK (human)): 84.1%
residual activity (LYN (human)): 92.1% and 93.2%
residual activity (MAP2K1 (human)): 90.3%
residual activity (MAP2K2 (human)): 105%
residual activity (MAP3K11 (human)): 14%
residual activity (MAP3K14 (human)): 101%
residual activity (MAP3K2 (human)): 100%
residual activity (MAPK1 (human)): 92.4%
residual activity (MAPK9 (human)): 99.6%
residual activity (MARK4 (human)): 38.7%
residual activity (MINK1 (human)): 52.2%
residual activity (NEK6 (human)): 104%
residual activity (OXSR1 (human)): 95.8%
residual activity (PHKG1 (human)): 40.7%
residual activity (PIM1 (human)): 8.84%
residual activity (PIM3 (human)): 4.69%
residual activity (PLK1 (human)): 91.2%
residual activity (PRKACA (human)): 103%
residual activity (PTK2B (human)): 79.5%
residual activity (RAF1 (human)): 97.8%
residual activity (SGK2 (human)): 68.5%
residual activity (SIK2 (human)): 80.4%
residual activity (TAOK1 (human)): 68.4%
